# Experimental data: US5683982A, “Synthetic lung surfactant having antioxidant properties” (Merrell Pharmaceuticals Inc., priority 1995, dated 1997)
# Starred links: 1 amine or outer side, 2 acyl side, 3 side chain; linkers in the order of their positions; H or OH if unused. Residues, ends and D or L forms follow the SMILES beside them. *: point of attachment. X1 = CC(C)(C)c1cc(C(=O)*)cc(C(C)(C)C)c1O; Suc = O=C(CCC(=O)[*:2])[*:1]
# How the values were obtained:
# [1] = Surface tension of an oscillating bubble in a pulsating bubble surfactometer; assay type: physicochemical; conditions: after 10 min of pulsing, 37° C.
# Protocol: Surface Tension Measurements. The minimum and maximum surface tension of an oscillating bubble were measured on samples at 37° C. with a cycle rate of 20 per min in a pulsating bubble surfactometer (PBS, Electronetics Corp.), essentially as described by Enhorning, J. Appl. Physiol 43:198-203 (1977). The plastic cample chamber was rinsed with a dilute solution of dishwashing detergent, thoroughly rinsed with water and dried under a stream of N2 prior to use.
# [2] = system: surfactant-deficient lavaged adult rat lungs; assay: Isolated rat lavaged lung model (pressure-volume deflation curves); assay type: in vivo; conditions: for effect on the pressure-volume (P-V) curve of the lavaged lung: statement in words
# Description: Methods of testing the synthetic surfactant preparations for efficacy are well known in the art. For example, the synthetic surfactant preparations of the present invention can be tested in any appropriate manner such as in the adult rat lung model (Ikegami, et al., (1979) Pediatr. Res. 13, 777-780).
# Pressure-volume characteristics of surfactant-depleted rat lungs are similar to those of lungs of infants with hyaline membrane disease and restoration of the pressure-volume relationship of the lung to normal is related to the amount of surfactant instilled in a dose dependent manner. (Bermel, M. S., et al., Lavaged excised rat lungs as a model of surfactant deficiency, Lung 162:99-113 (1984)).
# Isolated Rat Lavaged Lung Model. The experimental procedures for animal preparation, pressure-volume curve registration and lung lavage were adapted from those described by Ikegami et al., Pediatr. Res. 11:178-182 (1977) and Pediatr. Res. 13:777-780 (1979, and Bermel et al, Lung 162:99-113 (1984). Male Sprague Dawley rats (200-250 g) were anesthetized with sodium pentobarbital and exsanguinated. The trachea was cannulated and the thoracic organs were removed en bloc. After removal of the adventitious tissue, the trachea and lungs (~2 g) were suspended in saline (0.9%), placed in a vacuum chamber, and degassed according to the procedure of Stengel et al. the degassed lungs were suspended in saline in a 37° C., jacketed reservoir and the tracheal cannula was connected both to a water manometer and a glass syringe by a T-tube. The glass syringe was placed in an infusion/withdrawal pump. Lungs were rapidly inflated with air to 30 cm H2 O pressure at the rate of 10 ml/min to minimize air trapping, and were maintained at this pressure for 10 min by intermittently adding air to the lungs. The total volume of air infused was recorded as the total lung capacity (TLC) which was generally 14-15 ml. The lungs were then deflated at a rate of 2.5 ml/min until zero pressure was attained. During deflation, pressure was read from the water manometer at 1 cm intervals and recorded. […] After degassing and equilibration, the lungs were rendered surfactant-deficient by repeated lavage with 5 ml/g lavage buffer (0.9% NaCl, 10 mM HEPES, pH 7.4). The procedures of degassing, equilibrating, and lavaging were repeated (15-20 times) until the pressure-volume curve had become distinctly sigmoidal in shape and the volume of air remaining in the lungs at 5 cm H2 O pressure was less than or equal to 3 ml. At this point, the lungs were considered surfactant-deficient. For testing, 2 ml of 0.9% NaCl, 10 mM HEPES buffer, pH 7.4, were added to the dry lung surfactants (25 mg of phospholipid; 100-125 mg/kg) and the mixture was vortexed, flushed with nitrogen and incubated for 1 h at 45° C. The mixture was then vortexed again, degassed if foamy, and 2 ml of the test mixture were introduced into and withdrawn from the lungs four times by syringe. When the test mixture was reintroduced to the lungs for the fifth time, it was allowed to remain in the lungs. This procedure was adopted to encourage even distribution of the material throughout the lung. The lungs were degassed, allowed to equilibrate at 37° C. for 5 min, and a P-V measurement was performed. […] The deflation limbs of the pressure-volume (P-V) curves in adult rat lungs were analyzed by calculating the total lung capacities (%TLC) at 5 and 10 cm H2 O pressure (PC5 and PC10).
# [3] = CD spectra: conformation of peptides in water and TFE; assay type: physicochemical; conditions: fits ±3% (SEM of fit)
# Protocol: CD Spectra. Circular dichroic (CD) spectra of samples in 1 mm circular cuvettes were recorded at room temperature on a Jasco J-500A Spectropolarimeter with 2 nm slit width. The CD spectrum of buffer was subtracted from the CD spectrum of the sample after each scan. The scan rate is 2 nm/min and the time constant was 8 sec. Data was collected at 0.04 nm intervals and averaged over a 0.2 nm interval.
# [4] = system: soy phosphatidyl-choline (PC); assay: Antioxidant activity: inhibition of Fe-initiated lipid peroxidation (TBARs); assay type: biochemical
# Protocol: Antioxidant Activity. Peptides were dissolved in trifluoroethanol (TFE) and mixed with soy phosphatidyl-choline (PC) in chloroform. After drying under a N2 stream, the mixture was resuspended in ethanol and injected into buffer (50 mM NaCl, 50 mM Tris-HCl, pH 7.0) to obtain a final concentration of 0.5 mM phospholipid. Peroxidation was initiated with 50 μM Fe^2+ plus a mixture of 50 μM Fe^3+ and 250 μM histidine. At intervals over a period of 15 min at 37° C., 1 mL samples of the reaction mixture were taken for determination of TBARs (thiobarbituric acid reactive substances). Two mL of a mixture of 2 parts of 0.67% thiobarbituric acid/0.05N NaOH and 1 part of 10% trichloroacetic acid and 0.05 mL of 2% butylated hydroxytoluene were added. Reaction proceeded for 30 min at 100° C. The tubes were then cooled, centrifuged for 15 min at 3000 rpm and transferred to acrylic cuvettes. The differences in absorbance at 532 nm and 700 nm (to correct for light scattering) were measured and the TBARs were calculated in units of malondialdehyde equivalents using a molar extinction coefficient of 1.56×10^5 M^-1 cm^-1.
# [5] = water, fit to standard spectra of Greenfield & Fasman
Structure (SMILES),γmin (minimum surface tension) ([1]; unsonicated liposomes) [mN/m],"PC5 (% TLC at 5 cm H2O) ([2]; no dose given, mean ± SEM, n=4) [% TLC]","PC10 (% TLC at 10 cm H2O) ([2]; no dose given, mean ± SEM, n=4) [% TLC]","restoration (based on PC5) ([2]; no dose given, relative to sufficient and deficient measurements on the same lungs, mean ± SEM) [%]",effect on the pressure-volume (P-V) curve of the lavaged lung [2],"Conformation based on CD spectra: α ([3]; TFE, first TFE column)","Conformation based on CD spectra: α (second TFE column) ([3]; TFE, second TFE column)","Conformation based on CD spectra: α [3, 5]","Conformation based on CD spectra: β [3, 5]","antioxidant activity (inhibition of lipid peroxidation) ([4]; in soy PC mixtures, 50 μM Fe2+ plus 50 μM Fe3+/250 μM histidine, 37° C., 15 min)","γmin (minimum surface tension) ([1]; mixture with DPPC, 20 cycles per min)","time for which oxidation is totally inhibited ([4]; 0.6% (by weight), added to WMAP10 in soy PC mixtures, data not shown)"
"CCCCCCCCCCCCCCCC(=O)OC[C@H](COP(=O)([O-])OCC[N+](C)(C)C)OC(=O)CCCCCCCCCCCCCCC [DPPC, dipalmitoylphosphatidylcholine]",38,13 ± 1,31 ± 2,-11 ± 8,no significant effect,,,,,,,
"CC(C)C[C@H](NC(=O)CCC(=O)O)C(=O)N[C@@H](CC(C)C)C(=O)N[C@@H](CCC(=O)O)C(=O)N[C@@H](CCCCN)C(=O)N[C@@H](CC(C)C)C(=O)N[C@@H](CC(C)C)C(=O)N[C@@H](CCC(=O)O)C(=O)N[C@@H](CCCCNC(=O)c1cc(C(C)(C)C)c(O)c(C(C)(C)C)c1)C(=O)N[C@@H](CC(C)C)C(=O)N[C@@H](CCCCN)C(N)=O [HBB-LysMAP10, Suc-Leu-Leu-Glu-Lys-Leu-Leu-Glu-Ne-HBB-Lys-Leu-Lys-NH2] (Suc-LLEKLLEK(X1)LK-NH2)",,,,,,78,0,59,4,effective antioxidants,,
CC(C)(Sc1cc(C(C)(C)C)c(O)c(C(C)(C)C)c1)Sc1cc(C(C)(C)C)c(O)c(C(C)(C)C)c1 [Probucol],,,,,does not diminish the activity,,,,,,slightly increased,at least 8 min
